The text below walks through data of patent publication US20230250127A1, “MODIFIED mRNA 5'-CAP ANALOGS” (Nanjing GeneLeap Biotechnology Co., Ltd., priority 2021, published 2023).

“Also recorded” adds a separate entry of the source.

Test [1] deals with C57BL/6 mice. In words: In vivo Fluc expression of capped mRNA-LNPs by in vivo imaging system (IVIS). The following applies: for expression levels of Fluc protein in liver and muscle (injection site) tissues: Experiment 2, by in vivo imaging system and by ex vivo Luciferase assay, vs Cleancap AG (FIG. 13); for in vivo expression levels of Fluc protein (in vivo imaging system): vs Cleancap AG-mRNA; for Fluc expression in vivo, summary of FIGS. 10-13: mice, intramuscular mRNA-LNPs, compared to Cleancap AG. As for the experimental part:
(§1) Female C57BL/6 mice 7-8 weeks of age were randomly allocated to experimental groups, 30 mice per group. For each group, 6 experimental conditions were set up: 2 mRNA doses (0.01, 0.1 mg/kg) and 3 time points 6 h, 24 h, 48 h (5 mice/dose/time point). A single intramuscular injection of mRNA-loaded LNPs was performed (injection volume 40 µl). At 6 h, 24 h and 48 h post-injection, 5 animals/dose in each group were taken for in vivo tissue and organ imaging. The animals were shaved and intraperitoneally injected with 200 µL of a d-luciferin solution (15 mg/mL in DPBS) D-luciferin and anesthetized 8 min later using isoflurane (5% induction, 2% maintenance in pure oxygen). The emitted light was measured by in vivo imaging system (IVIS) exactly 12 min after d-luciferin injection. Whole body supine and lateral position imaging was carried out.
(§2) After Whole body imaging, the animals were euthanized, and the leg muscles (injection site) were harvested in Experiment 1; muscles and livers were harvested in Experiment 2. The emitted light by the tissues/organs was measured by IVIS in less than 25 min after d-luciferin injection.

Test [2] concerns HeLa cells. In words: Fluc mRNA carrying 5′-cap analogs, translation in HeLa cells (luciferase luminescence). It counts as cell-based. The following applies: for Fluc expression in vitro, summary of FIGS. 7-9: HeLa cells, compared to the control Cleancap AG; for expression levels of Fluc protein by mRNAs containing different 5′caps: HeLa. As for the experimental part:
The novel 5′ -caps synthesized were incorporated into Firefly luciferase (Fluc) mRNA using pGL-T7-AG-nUTR002-Fluc-HBB3UTR-30+70A-BpiI (Kana-AGG-BpiI Plasmid Size: 4856bp). Then, the dose responses of the new cap analogs were compared to commercially available Cap analog from Trilink m7G(5′)ppp(5′)(2′OMeA)pG (cat no. N-7113).
Briefly, 1 µg GLuc (AGG plasmid) template per reaction was transcribed in vitro using a High Yield T7 mRNA synthesis kit (NEB, E2040S). Cap analogs were added by co-transcription. Transcription was carried out for 2 hours, followed by DNase I treatment for 15 min. Ratio of NTP to Cap analogs, 10:4 (10 mM NTP each, 4 mM cap).
Expected mRNA length: 2008 nt. Then the small scale IVT mRNAs were purified using DNA Selection Magnetic beads (Yeasen,12601ES56), Large scale IVT mRNAs were purified using POROS™ Oligo (dT)25 (Thermofisher, A47383) and Ultrafiltration use Amicon® Ultra-15(Merk, UFC910024), the RNA was quantitated using Nanodrop, and 500 ng of each mRNA was run on agarose E-Gel, mRNAs were run on a 2100 bioanalyzer or CE (PA800) for checking mRNA integrity, HPLC for Purity, DNAzyme-PAGE for Capping efficiency and polyA quality. Large scale mRNA were subjected to more QC (Capping/polyA tail-LC-MS, Template DNA residual-qPCR, dsRNA-Elisa, pH).
Novel 5 ′-cap structures that were synthesized were incorporated into Firefly luciferase (Fluc) mRNA via IVT as described above and then assessed for translation efficacy in HeLa cells following transfection. Briefly, HeLa cells were seeded in a 96-well plate (20000cells/0.1 ml/well). The next day (approx. ∼80-90% confluent), the cells were transfected with 25, 50, or 100 ng/well of Fluc-mRNA samples using 2 µl/ml of Lipofectamine MessengerMax (Thermo Scientific, cat#LMRNA015) or in-house formulated lipid-nanoparticles (LNPs). The cells were incubated for another 24 h. To monitor the functional (translation) activity of Fluc mRNAs into which different 5′cap analogs have been incorporated, the Fluc protein expression was evaluated by adding 60 µl Bio Lite Luciferase Assay System (Vazyme, cat # DD1201-02) into each well, incubating the plates at room temperature for 10 min, and measuring the luminescence using a multimode plate reader luminometer. All wells were assayed in triplicates. Statistical analysis was performed using two-way ANOVA followed by uncorrected Fisher’s LSD.

Test [3] concerns C57BL/6 mice. The test can be described thus: Ex vivo Luciferase assay of tissue homogenates after mRNA-LNP injection. It counts as in vivo. The following applies: Experiment 1, low and high dose regimens, different time points; vs Cleancap AG-mRNA. As for the experimental part:
as §1, §2
Next, tissue lysates were prepared by homogenization and Glo Lysis Buffer 1X (Abcam cat # ab6789) treatment. The lysates were centrifuged at 4° C. for 15 min at 10000 g, and the supernatants were used for total protein quantification and luciferase activity assessment. […]

The test system of test [4] is C3 tumors. In words: C3 Tumor Model, capped HPV E6/E7 mRNA. It counts as in vivo. Conditions: GL2288 mRNA, mid dose (0.05 mg/Kg), intramuscular Day 0; vs CC. As for the experimental part: As soon as the C3 tumors reached 100 mm^3, our HPV E6/E7 mRNA sequence (GL2281) (wherein the sequence encoding HPV E6-E7 is SEQ ID NO:2), capped with either CleanCap, GL-Cap5 or GL-Cap1, was administered intramuscularly at 10 µg per dose, with the first dose on Day 0 and second dose on Day 10. The PBS and 10 µg of CleanCap-capped Luciferase mRNA (FF luciferase) were used for comparison.
As soon as the C3 tumors reached 100 mm3, our HPV E6/E7 mRNA sequence (GL2288) (wherein the sequence encoding HPV E6-E7 is SEQ ID NO:1), capped with either CleanCap (CC), or GL-Cap7, was administered intramuscularly at different doses at Day 0. The CleanCap-capped Luciferase mRNA (FF Luciferase) was used for comparison.

Where [5] appears, read: Experiment 2, single intramuscular dose 0.1 mg/kg, 6 h after injection.

On to `C[n+]1cn([C@@H]2O[C@H](COP(=O)([O-])OP(=O)(O)OP(=O)(O)OC[C@]34COC(C3OP(=O)(O)OC[C@]35COC(C3OP(=O)(O)OC[C@H]3O[C@@H](n6cnc7c(=O)[nH]c(N)nc76)C(O)C3O)[C@H](n3cnc6c(N)ncnc63)O5)[C@H](n3cnc5c(N)ncnc53)O4)C(O)C2O)c2nc(N)[nH]c(=O)c21` (some centres unmarked) [GL-Cap1, 7mGppp(locked)Ap(locked)ApG], for which the “expression levels of Fluc protein in liver and muscle (injection site) tissues” value (“expression levels … (injection site) tissues” below) in test [1] is on record as “better”. For the same compound, in test [1] (setting [5]), the “in vivo expression levels of Fluc protein (in vivo imaging system)” value (“in vivo expression levels” for short) is on record as “slightly higher than in the Cleancap AG group, but without statistical significance”.

Regarding `C[n+]1cn([C@@H]2O[C@H](COP(=O)([O-])OP(=O)(O)OP(=O)(O)OC[C@]34COC(C3OP(=O)(O)OC[C@H]3O[C@@H](n5cnc6c(=O)[nH]c(N)nc65)C(O)C3O)[C@H](n3cnc5c(N)ncnc53)O4)C(O)C2O)c2nc(N)[nH]c(=O)c21` (some centres unmarked) [GL-Cap5, 7mGppp(locked)ApG], in test [2], the “Fluc expression in vitro, summary of FIGS. 7-9” value was “stronger expression”. The “expression levels of Fluc protein by mRNAs containing different 5′caps” value in test [2] (24 h, in-house LNP formulation, high and medium doses (FIG. 7B)) is listed as “significantly higher than all the other tested caps”; in test [2] (24 h post-transfection, Lipofectamine MessengerMax, different tested doses, vs Cleancap AG (FIG. 7A)) it was “significantly higher expression level at different tested doses”. The “in vivo expression levels” value in test [1] (Experiment 1, single intramuscular dose of mRNA-LNPs, low and high dose regimens, 6 h, 24 h, 48 h) was “significantly higher Fluc expression levels; also recorded: the strongest expression level among the tested caps”; in test [1] (setting [5]), “significantly higher Fluc expression levels”. The “expression levels … (injection site) tissues” value in test [1] is listed as “comparable”. Besides, the “Fluc expression in vivo, summary of FIGS. 10-13” value in test [1] is reported as “significantly stronger expression”. Moreover, in test [3], the “expression levels of Fluc protein in muscle tissue homogenates (ex vivo Luciferase assay)” value is recorded as “higher than with Cleancap AG-mRNA”.

With `C[n+]1cn([C@@H]2O[C@H](COP(=O)([O-])OP(=O)(O)OP(=O)(O)OC[C@]34COC(C3OP(=O)(O)OC[C@H]3O[C@@H](n5cnc6c(=O)[nH]c(N)nc65)C(O)C3O)[C@H](n3cnc5c(N)ncnc53)O4)C(O)C2F)c2nc(N)[nH]c(=O)c21` (some centres unmarked) [GL-Cap7, 7m-2′F-Gppp(locked)ApG], the anti-tumor efficacy result in test [4] is recorded as “higher anti-tumor efficacy than CC”. The “Fluc expression in vitro, summary of FIGS. 7-9” value in test [2] was “stronger expression”. In addition, in test [1], the “expression levels … (injection site) tissues” value is reported as “better; also recorded: highest expression levels”; the “Fluc expression in vivo, summary of FIGS. 10-13” value is on record as “significantly stronger expression”. Also, the “in vivo expression levels” value in test [1] (setting [5]) is given as “significantly higher Fluc expression levels”.

In the case of `COCCOC1C(O)[C@@H](COP(=O)([O-])OP(=O)(O)OP(=O)(O)OC[C@]23COC(C2OP(=O)(O)OC[C@H]2O[C@@H](n4cnc5c(=O)[nH]c(N)nc54)C(O)C2O)[C@H](n2cnc4c(N)ncnc42)O3)O[C@H]1n1c[n+](C)c2c(=O)[nH]c(N)nc21` (some centres unmarked) [GL-Cap8, 7m-2-′MOE-Gppp(locked)ApG], the “expression levels of Fluc protein by mRNAs containing different 5′caps” value in test [2] (24 h, in-house LNP formulation, low doses (FIG. 7B)) is reported as “stronger expression than Cleancap AG (Trilink)”. Also, the “expression levels … (injection site) tissues” value in test [1] is “better; also recorded: highest expression levels”.
